Key:
[1] = test system: KRAS signaling (pMEK and pAKT); test: Immunoblot of downstream surrogates of KRAS signaling in NIH3T3 cells expressing FKBP*-KRASG12V; format: cell-based; settings: NIH3T3 cells, N-terminal dTAG-KRAS; 500 nM, indicated time
Description: FIG. 19 is an immunoblot of NIH3T3 cells expressing KRASG12V allele fused to FKBP* in the N-terminus or C-terminus. Cells were treated with 500 nM dFKBP7 for the indicated time. Cells were harvested and immunoblotted to measure degradation of FKBP*-KRASG12V and downstream surrogates of KRAS signaling (e.g. pMEK and pAKT).
(§1) FIG. 20 is an immunoblot of NIH3T3 cells expressing FKBP* fused to the N-terminus of KRASG12V treated with 1 uM of the indicated dFKBP heterobifunctional compounds for 24 hours. Cells were harvested and immunoblotted to measure degradation of FKBP*-KRASG12V and downstream surrogates of KRAS signaling (e.g. pMEK and pAKT).
as §1, with “21” for “20”, “with” for “with 1 uM of”, “concentrations of dFKBP13” for “dFKBP heterobifunctional compounds”
FIG. 22 is an immunoblot of NIH3T3 cells expressing FKBP* fused to the N-terminus of KRASG12V treated with 1 uM dFKBP13 for the indicated time. Cells were harvested and immunoblotted to measure degradation of FKBP*-KRASG12V and downstream surrogates of KRAS signaling (e.g. pMEK and pAKT).
Cells were treated with 500 nM dFKBP7 for the indicated time. […]

SMART-CAR = SMART-CAR expression in Jurkat T-cells by flow cytometry with HA-antibody; format: cell-based, human; settings: 4 hour pretreatment 250 nM, wash, retreatment with 250 nM dFKBP7; 1:1 co-culture
Description: FIG. 27 is a histogram plot illustrating the ability to track SMART-CAR expression in Jurkat cells. SMART-CAR expressing Jurkat cells were stained with a HA-antibody and subsequently labelled with a secondary Alexa647 fluorescent antibody. Stained cells were subject to flow cytometry with excitation with a 647 nm laser and HA expression quantified via Alexa647 fluorescent signal (Example 24). The observed shift in signal illustrates the ability to track SMART-CAR expression in Jurkat T cells.
FIG. 31 are line plots tracking CD19 positive tumor cells and SMART-CAR expression levels as described in the experimental setup in FIG. 20 and described in Example 26. After the 4 hour pretreatment with 250 nM of dFKBP7, SMART-CAR expressing Jurkats were mixed in a 1:1 ratio with CD19 positive tumor cells (Daudi: top and Raji: bottom) in the presence (green line) or absence (blue line) of 250 nM of dFKBP7. […]
FIG. 27 illustrates the use of flow cytometry to monitor SMART-CAR protein expression in Jurkat T-cells. […] This allows for quantitative measurements of SMART-CAR protein expression levels.
SMART-CAR expressing Jurkat cells were pretreated with dFKBP7 at 250 nM for 4 hours to allow for maximal degradation of SMART-CAR. […] The two experimental arms were then mixed at a 1:1 ratio with CD19 positive tumor cells and CD19-positive tumor cells monitored by flow cytometry. […]

IL-2 = IL-2 ELISA of co-culture supernatants of SMART-CAR expressing Jurkat T-cells; format: cell-based; settings: CD19 positive Raji cells; 1:3 ratio; 4 hours; 250 nM dFKBP7
Description: FIG. 35 is a histogram bar plot quantifying IL-2 levels produced from SMART-CAR expressing Jurkat T-cells after co-incubation with antigen expressing K562 cells in a 1:3 ratio (T cell to K562 cell) for 24 hours as described in Example 29. IL-2 levels were quantified by ELISA using co-culture supernatants.
FIG. 36 is a histogram bar plot quantifying IL-2 levels produced from SMART-CAR expressing Jurkat T-cells after co-incubation with CD19 positive Raji cells in a 1:3 ratio (T cells to Raji cells) for 4 hours.
FIG. 35 illustrates the specificity in activation of SMART-CAR expressing T-cells for CD19 expressing target tumor cells. SMART-CAR expressing Jurkat T-cells were co-incubated with antigen expressing K562 cells in a 1:3 ratio (T cell to K562 cell) for 24 hours. IL-2 levels were quantified by ELISA using co-culture supernatants.
FIG. 36 illustrates the chemical control of SMART-CAR expressing T-cell activation using the hetero bifunctional molecule dFKBP7. SMART-CAR expressing Jurkat T-cells were co-incubated with CD19 positive Raji cells in a 1:3 ratio.

CC[C@H](C(=O)N1CCCC[C@H]1C(=O)O[C@H](CCc1ccc(OC)c(OC)c1)c1cccc(OCC(=O)NCCCOCCOCCOCCCNC(=O)COc2cccc3c2C(=O)N(C2CCC(=O)NC2=O)C3=O)c1)c1cc(OC)c(OC)c(OC)c1 (stereo partly drawn) [dFKBP7]
p-AKT signal [1]: downstream decrease in p-AKT signal
SMART-CAR expression (SMART-CAR): minimal
IL-2 production (IL-2): completely suppressed

From patent US11311609B2, “Regulating chimeric antigen receptors” (DANA-FARBER CANCER INSTITUTE, INC., priority 2017, dated 2022)
